Reference: ChEMBL document CHEMBL4804284

Columns and labels:
Set-up in all cases: scale not given: the % may be the effect or the level left
[1] = molecular target: Tyrosine-protein kinase ITK/TSK (Homo sapiens) (UniProt Q08881); assay: Inhibition of DNA-tagged human ITK assessed as percent of control at 50000 nM by qPCR analysis relative to control
[2] = tested on: Receptor-type tyrosine-protein kinase FLT3 (Homo sapiens), P36888 [UNDEFINED MUTATION]; assay: Inhibition of DNA-tagged human FLT3 ITD mutant assessed as percent of control at 50000 nM by qPCR analysis relative to control
Sequence of Receptor-type tyrosine-protein kinase FLT3 (Homo sapiens), P36888 [UNDEFINED MUTATION] (P36888 whole entry, looked up, change not shown): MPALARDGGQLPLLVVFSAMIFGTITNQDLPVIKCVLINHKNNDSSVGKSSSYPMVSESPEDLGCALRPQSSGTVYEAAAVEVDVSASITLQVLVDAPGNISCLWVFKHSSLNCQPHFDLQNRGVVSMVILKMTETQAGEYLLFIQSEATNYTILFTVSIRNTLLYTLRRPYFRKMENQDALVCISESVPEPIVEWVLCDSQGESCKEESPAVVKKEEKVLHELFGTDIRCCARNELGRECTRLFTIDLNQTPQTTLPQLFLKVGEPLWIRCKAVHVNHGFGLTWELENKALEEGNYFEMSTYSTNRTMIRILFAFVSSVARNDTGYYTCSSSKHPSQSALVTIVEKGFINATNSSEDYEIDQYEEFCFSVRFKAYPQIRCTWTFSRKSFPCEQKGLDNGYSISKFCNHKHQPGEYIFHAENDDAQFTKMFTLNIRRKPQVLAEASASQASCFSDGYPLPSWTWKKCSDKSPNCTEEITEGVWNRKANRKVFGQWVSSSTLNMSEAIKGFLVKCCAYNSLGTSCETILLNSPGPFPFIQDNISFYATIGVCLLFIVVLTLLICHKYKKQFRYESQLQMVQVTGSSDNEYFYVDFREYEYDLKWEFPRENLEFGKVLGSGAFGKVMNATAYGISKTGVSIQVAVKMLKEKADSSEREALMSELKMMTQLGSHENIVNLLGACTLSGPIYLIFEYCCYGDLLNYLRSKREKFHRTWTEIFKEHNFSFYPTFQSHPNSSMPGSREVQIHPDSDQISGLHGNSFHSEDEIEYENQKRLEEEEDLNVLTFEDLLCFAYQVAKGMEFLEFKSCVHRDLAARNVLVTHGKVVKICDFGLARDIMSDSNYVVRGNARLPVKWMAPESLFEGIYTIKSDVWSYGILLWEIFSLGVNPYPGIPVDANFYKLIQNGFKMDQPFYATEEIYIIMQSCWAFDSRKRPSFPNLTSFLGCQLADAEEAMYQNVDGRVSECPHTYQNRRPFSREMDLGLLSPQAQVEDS

[3] = molecular target: Fibroblast growth factor receptor 2 (Homo sapiens) (UniProt P21802); assay: Inhibition of DNA-tagged human FGFR2 assessed as percent of control at 50000 nM by qPCR analysis relative to control
[4] = molecular target: Receptor tyrosine-protein kinase erbB-3 (Homo sapiens) (UniProt P21860); assay: Inhibition of DNA-tagged human ERBB3 assessed as percent of control at 50000 nM by qPCR analysis relative to control
[5] = molecular target: Casein kinase II subunit alpha' (Homo sapiens) (UniProt P19784); assay: Inhibition of DNA-tagged human CSNK2A2 assessed as percent of control at 50000 nM by qPCR analysis relative to control
Sequence of Casein kinase II subunit alpha' (Homo sapiens) (P19784 whole entry, looked up): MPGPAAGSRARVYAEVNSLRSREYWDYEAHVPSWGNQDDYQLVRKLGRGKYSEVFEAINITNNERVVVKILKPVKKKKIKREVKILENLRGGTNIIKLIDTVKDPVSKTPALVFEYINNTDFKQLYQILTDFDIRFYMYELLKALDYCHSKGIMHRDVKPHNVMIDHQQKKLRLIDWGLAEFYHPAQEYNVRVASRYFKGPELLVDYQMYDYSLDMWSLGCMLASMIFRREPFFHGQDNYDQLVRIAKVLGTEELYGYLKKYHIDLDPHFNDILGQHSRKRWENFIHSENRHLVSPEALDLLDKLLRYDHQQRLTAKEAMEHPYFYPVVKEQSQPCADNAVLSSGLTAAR

[6] = molecular target: Cyclin-dependent kinase 3 (Homo sapiens) (UniProt Q00526); assay: Inhibition of DNA-tagged human CDK3 assessed as percent of control at 50000 nM by qPCR analysis relative to control
[7] = molecular target: Cyclin-dependent kinase 11A (Homo sapiens) (UniProt Q9UQ88); assay: Inhibition of DNA-tagged human CDC2L2 assessed as percent of control at 50000 nM by qPCR analysis relative to control
[8] = molecular target: Calcium/calmodulin-dependent protein kinase type II subunit delta (Homo sapiens) (UniProt Q13557); assay: Inhibition of DNA-tagged human CAMK2D assessed as percent of control at 50000 nM by qPCR analysis relative to control
[9] = molecular target: Serine/threonine-protein kinase BRSK2 (Homo sapiens) (UniProt Q8IWQ3); assay: Inhibition of DNA-tagged human BRSK2 assessed as percent of control at 50000 nM by qPCR analysis relative to control
[10] = molecular target: Ankyrin repeat and protein kinase domain-containing protein 1 (Homo sapiens) (UniProt Q8NFD2); assay: Inhibition of DNA-tagged human ANKK1 assessed as percent of control at 50000 nM by qPCR analysis relative to control
[11] = molecular target: 5'-AMP-activated protein kinase catalytic subunit alpha-1 (Homo sapiens) (UniProt Q13131); assay: Inhibition of DNA-tagged human AMPK-alpha1 assessed as percent of control at 50000 nM by qPCR analysis relative to control
Sequence of 5'-AMP-activated protein kinase catalytic subunit alpha-1 (Homo sapiens) (Q13131 whole entry, looked up): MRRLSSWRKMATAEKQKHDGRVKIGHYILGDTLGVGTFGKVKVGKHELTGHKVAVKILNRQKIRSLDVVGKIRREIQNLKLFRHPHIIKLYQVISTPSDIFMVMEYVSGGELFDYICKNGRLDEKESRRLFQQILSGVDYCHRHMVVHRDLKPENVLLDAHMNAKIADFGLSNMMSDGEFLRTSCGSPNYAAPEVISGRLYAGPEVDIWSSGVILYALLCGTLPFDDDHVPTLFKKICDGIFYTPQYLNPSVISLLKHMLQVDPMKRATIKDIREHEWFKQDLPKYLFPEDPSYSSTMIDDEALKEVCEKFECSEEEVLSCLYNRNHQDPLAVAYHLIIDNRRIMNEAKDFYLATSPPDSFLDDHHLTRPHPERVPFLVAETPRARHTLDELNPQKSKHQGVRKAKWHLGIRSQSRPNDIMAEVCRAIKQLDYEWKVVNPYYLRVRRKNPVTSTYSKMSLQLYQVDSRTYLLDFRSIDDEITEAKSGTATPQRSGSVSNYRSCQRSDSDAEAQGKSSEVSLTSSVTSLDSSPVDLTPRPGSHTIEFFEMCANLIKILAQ

[12] = molecular target: Tyrosine-protein kinase ABL2 (Homo sapiens) (UniProt P42684); assay: Inhibition of DNA-tagged human ABL2 assessed as percent of control at 50000 nM by qPCR analysis relative to control
[13] = tested on: Tyrosine-protein kinase ABL1 (Homo sapiens), P00519 [Q252H]; assay: Inhibition of DNA-tagged non-phosphorylated human ABL1 Q252H mutant assessed as percent of control at 50000 nM by qPCR analysis relative to control
[14] = tested on: Tyrosine-protein kinase ABL1 (Homo sapiens), P00519 [UNDEFINED MUTATION]; assay: Inhibition of DNA-tagged non-phosphorylated human ABL1 […] mutant assessed as percent of control at 50000 nM by qPCR analysis relative to control
[15] = tested on: Tyrosine-protein kinase ABL1 (Homo sapiens), P00519 [F317I]; assay: Inhibition of DNA-tagged phosphorylated human ABL1 F317I mutant assessed as percent of control at 50000 nM by qPCR analysis relative to control
[16] = molecular target: Tyrosine-protein kinase Lck (Homo sapiens) (UniProt P06239); assay: Inhibition of DNA-tagged human LCK assessed as percent of control at 50000 nM by qPCR analysis relative to control
[17] = molecular target: MAP/microtubule affinity-regulating kinase 4 (Homo sapiens) (UniProt Q96L34); assay: Inhibition of DNA-tagged human MARK4 assessed as percent of control at 50000 nM by qPCR analysis relative to control
[18] = molecular target: Misshapen-like kinase 1 (Homo sapiens) (UniProt Q8N4C8); assay: Inhibition of DNA-tagged human MINK assessed as percent of control at 50000 nM by qPCR analysis relative to control
[19] = molecular target: Serine/threonine-protein kinase MRCK alpha (Homo sapiens) (UniProt Q5VT25); assay: Inhibition of DNA-tagged human MRCKA assessed as percent of control at 50000 nM by qPCR analysis relative to control
[20] = molecular target: Serine/threonine-protein kinase 4 (Homo sapiens) (UniProt Q13043); assay: Inhibition of DNA-tagged human MST1 assessed as percent of control at 50000 nM by qPCR analysis relative to control
Sequence of Serine/threonine-protein kinase 4 (Homo sapiens) (Q13043 whole entry): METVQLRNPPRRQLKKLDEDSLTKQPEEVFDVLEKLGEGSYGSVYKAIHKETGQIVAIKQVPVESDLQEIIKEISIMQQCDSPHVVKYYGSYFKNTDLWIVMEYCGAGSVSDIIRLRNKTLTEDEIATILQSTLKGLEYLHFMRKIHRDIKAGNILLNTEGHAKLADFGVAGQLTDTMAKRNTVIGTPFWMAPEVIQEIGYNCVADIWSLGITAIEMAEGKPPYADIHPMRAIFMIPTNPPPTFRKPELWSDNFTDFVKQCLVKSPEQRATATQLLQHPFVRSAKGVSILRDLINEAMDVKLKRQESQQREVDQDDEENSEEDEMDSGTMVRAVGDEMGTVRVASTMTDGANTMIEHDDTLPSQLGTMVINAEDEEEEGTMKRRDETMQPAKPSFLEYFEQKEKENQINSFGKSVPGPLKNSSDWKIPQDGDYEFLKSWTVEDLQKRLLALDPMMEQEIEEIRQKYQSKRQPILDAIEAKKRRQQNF

[21] = molecular target: Serine/threonine-protein kinase PLK4 (Homo sapiens) (UniProt O00444); assay: Inhibition of DNA-tagged human PLK4 assessed as percent of control at 50000 nM by qPCR analysis relative to control
[22] = molecular target: Protein kinase C iota type (Homo sapiens) (UniProt P41743); assay: Inhibition of DNA-tagged human PRKCI assessed as percent of control at 50000 nM by qPCR analysis relative to control
Sequence of Protein kinase C iota type (Homo sapiens) (P41743 whole entry): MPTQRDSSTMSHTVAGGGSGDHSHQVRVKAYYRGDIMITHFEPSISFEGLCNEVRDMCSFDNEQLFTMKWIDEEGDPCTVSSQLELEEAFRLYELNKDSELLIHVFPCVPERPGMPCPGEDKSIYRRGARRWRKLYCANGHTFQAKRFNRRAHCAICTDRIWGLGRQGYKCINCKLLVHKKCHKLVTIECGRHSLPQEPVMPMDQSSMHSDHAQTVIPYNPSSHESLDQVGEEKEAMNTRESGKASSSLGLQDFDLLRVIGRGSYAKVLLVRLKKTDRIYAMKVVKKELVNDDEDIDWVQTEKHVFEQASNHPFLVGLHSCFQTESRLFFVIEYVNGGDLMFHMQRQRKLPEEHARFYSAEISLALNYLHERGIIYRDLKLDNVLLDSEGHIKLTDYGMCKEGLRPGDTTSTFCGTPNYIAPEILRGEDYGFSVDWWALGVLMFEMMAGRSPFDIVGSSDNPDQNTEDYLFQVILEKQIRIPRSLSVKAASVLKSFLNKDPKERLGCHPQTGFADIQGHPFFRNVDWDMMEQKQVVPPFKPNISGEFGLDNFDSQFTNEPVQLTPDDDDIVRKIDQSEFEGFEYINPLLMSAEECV

[23] = molecular target: Serine/threonine-protein kinase D1 (Homo sapiens) (UniProt Q15139); assay: Inhibition of DNA-tagged human PRKD1 assessed as percent of control at 50000 nM by qPCR analysis relative to control
[24] = molecular target: Serine/threonine-protein kinase D2 (Homo sapiens) (UniProt Q9BZL6); assay: Inhibition of DNA-tagged human PRKD2 assessed as percent of control at 50000 nM by qPCR analysis relative to control
Sequence of Serine/threonine-protein kinase D2 (Homo sapiens) (Q9BZL6 whole entry): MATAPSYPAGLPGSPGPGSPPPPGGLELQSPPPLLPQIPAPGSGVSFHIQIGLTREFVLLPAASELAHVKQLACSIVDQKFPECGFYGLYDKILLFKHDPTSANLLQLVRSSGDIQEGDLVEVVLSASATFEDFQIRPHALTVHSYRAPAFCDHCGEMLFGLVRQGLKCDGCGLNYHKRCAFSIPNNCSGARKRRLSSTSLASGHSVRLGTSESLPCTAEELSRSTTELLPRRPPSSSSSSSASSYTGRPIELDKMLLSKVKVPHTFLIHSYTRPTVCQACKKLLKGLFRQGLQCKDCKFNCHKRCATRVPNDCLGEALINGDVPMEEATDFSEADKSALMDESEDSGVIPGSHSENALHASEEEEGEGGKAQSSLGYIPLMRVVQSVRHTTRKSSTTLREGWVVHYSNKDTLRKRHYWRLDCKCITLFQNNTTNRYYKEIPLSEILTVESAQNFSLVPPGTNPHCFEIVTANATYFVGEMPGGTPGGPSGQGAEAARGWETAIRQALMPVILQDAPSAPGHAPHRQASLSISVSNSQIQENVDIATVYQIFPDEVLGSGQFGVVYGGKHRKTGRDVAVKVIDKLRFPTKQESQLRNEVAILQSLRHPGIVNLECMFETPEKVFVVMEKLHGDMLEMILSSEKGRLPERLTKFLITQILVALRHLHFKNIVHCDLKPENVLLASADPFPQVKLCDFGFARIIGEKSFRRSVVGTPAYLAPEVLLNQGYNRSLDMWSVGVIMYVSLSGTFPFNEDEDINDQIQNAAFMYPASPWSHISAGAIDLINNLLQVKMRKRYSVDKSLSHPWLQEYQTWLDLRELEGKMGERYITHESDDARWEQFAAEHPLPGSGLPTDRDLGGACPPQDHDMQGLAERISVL

[25] = molecular target: Serine/threonine-protein kinase SIK3 (Homo sapiens) (UniProt Q9Y2K2); assay: Inhibition of DNA-tagged human QSK assessed as percent of control at 50000 nM by qPCR analysis relative to control
[26] = molecular target: Serine/threonine-protein kinase RIO3 (Homo sapiens) (UniProt O14730); assay: Inhibition of DNA-tagged human RIOK3 assessed as percent of control at 50000 nM by qPCR analysis relative to control
[27] = molecular target: Ribosomal protein S6 kinase beta-1 (Homo sapiens) (UniProt P23443); assay: Inhibition of DNA-tagged human S6K1 assessed as percent of control at 50000 nM by qPCR analysis relative to control
Sequence of Ribosomal protein S6 kinase beta-1 (Homo sapiens) (P23443 whole entry, looked up): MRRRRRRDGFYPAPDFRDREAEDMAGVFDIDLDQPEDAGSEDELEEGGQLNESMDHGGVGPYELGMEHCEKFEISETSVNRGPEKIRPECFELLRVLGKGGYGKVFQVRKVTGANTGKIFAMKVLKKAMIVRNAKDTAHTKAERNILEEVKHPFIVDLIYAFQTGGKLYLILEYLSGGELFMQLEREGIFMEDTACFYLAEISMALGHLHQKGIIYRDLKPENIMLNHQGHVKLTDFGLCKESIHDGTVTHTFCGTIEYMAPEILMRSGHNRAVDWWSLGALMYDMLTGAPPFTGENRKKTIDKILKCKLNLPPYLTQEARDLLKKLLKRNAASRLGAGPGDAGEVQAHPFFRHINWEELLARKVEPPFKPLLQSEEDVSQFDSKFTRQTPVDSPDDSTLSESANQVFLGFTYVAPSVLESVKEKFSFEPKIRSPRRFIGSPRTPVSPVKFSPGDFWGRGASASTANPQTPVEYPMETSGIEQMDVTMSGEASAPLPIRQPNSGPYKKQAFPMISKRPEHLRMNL

[28] = molecular target: Serine/threonine-protein kinase 35 (Homo sapiens) (UniProt Q8TDR2); assay: Inhibition of DNA-tagged human STK35 assessed as percent of control at 50000 nM by qPCR analysis relative to control
[29] = molecular target: Serine/threonine-protein kinase TBK1 (Homo sapiens) (UniProt Q9UHD2); assay: Inhibition of DNA-tagged human TBK1 assessed as percent of control at 50000 nM by qPCR analysis relative to control

Sequence of Tyrosine-protein kinase ITK/TSK (Homo sapiens) (Q08881 whole entry): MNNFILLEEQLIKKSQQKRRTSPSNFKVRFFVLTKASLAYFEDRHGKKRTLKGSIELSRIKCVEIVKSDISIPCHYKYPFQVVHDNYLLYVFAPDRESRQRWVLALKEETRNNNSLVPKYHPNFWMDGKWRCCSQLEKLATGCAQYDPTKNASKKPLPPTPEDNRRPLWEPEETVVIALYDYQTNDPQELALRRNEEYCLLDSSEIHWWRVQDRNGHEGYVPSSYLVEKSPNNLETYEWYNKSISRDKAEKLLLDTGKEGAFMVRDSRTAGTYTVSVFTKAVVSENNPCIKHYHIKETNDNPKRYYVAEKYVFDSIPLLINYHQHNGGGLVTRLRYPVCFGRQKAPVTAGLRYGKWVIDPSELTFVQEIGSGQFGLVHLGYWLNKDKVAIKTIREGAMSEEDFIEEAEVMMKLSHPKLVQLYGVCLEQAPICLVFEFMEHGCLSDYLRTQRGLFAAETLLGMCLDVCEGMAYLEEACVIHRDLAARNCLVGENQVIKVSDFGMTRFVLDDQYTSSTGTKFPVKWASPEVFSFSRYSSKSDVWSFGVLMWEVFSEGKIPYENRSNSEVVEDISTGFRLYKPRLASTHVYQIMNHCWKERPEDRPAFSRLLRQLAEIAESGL

Compound: CN1C(=O)/C(=C2/C(=O)Nc3ccccc32)c2ccccc21
- Activity [1]: 78%
- Activity [2]: 76%
- Activity [3]: 89%
- Activity [4]: 51%
- Activity [5]: 82%
- Activity [6]: 78%
- Activity [7]: 100%
- Activity [8]: 80%
- Activity [9]: 100%
- Activity [10]: 81%
- Activity [11]: 100%
- Activity [12]: 89%
- Activity [13]: 100%
- Activity [14]: 100%
- Activity [15]: 100%
- Activity [16]: 96%
- Activity [17]: 77%
- Activity [18]: 75%
- Activity [19]: 92%
- Activity [20]: 95%
- Activity [21]: 79%
- Activity [22]: 100%
- Activity [23]: 97%
- Activity [24]: 87%
- Activity [25]: 100%
- Activity [26]: 89%
- Activity [27]: 85%
- Activity [28]: 89%
- Activity [29]: 50%
